These results are taken from patent US20120202287A1, “Stem Cell Culture Methods” (priority 2009, published 2012).

“Also recorded” adds a separate entry of the source.

Holding throughout (type): cell-based, human
One data set relates to hESCs. The data set can be described thus: Directed monolayer neuronal differentiation with and without EHNA. As to the method: […] RNA samples were taken at various time intervals and a variety of marker gene expression was measured using qRT-PCR.
In FIGS. 11a-d, the value of 1 was set to the level of expression in undifferentiated hES cells. In FIG. 12a, the value of 1 was set to the expression level in the untreated control samples.

Another data set has as its system hESC line SA461. Kind of data set: hESC line transferred directly from MEF feeders to feeder-free culture without FGF, supplemented with EHNA. The conditions noted are these: passage 7, 10 uM EHNA, no exogenous FGF. The procedure:
A culture of the hESC line SA461 was transferred from a supportive MEF feeder layer directly, using manual dissection, to standard feeder free conditions in the absence of exogenous FGF but supplemented with 10 uM EHNA. A control was also grown with neither FGF nor EHNA present. Cells were subsequently passaged by the standard trypsin feeder free technique. It was determined by passage 7 that the EHNA containing cultures were almost 100% positive for POU5F1 whereas positive staining in the cultures absent for FGF and EHNA was minimal (FIG. 8).

The subject of a further data set is hESCs (SA121). The data set can be described thus: Feeder-free culture of hESCs without exogenous FGF, supplemented with EHNA. The procedure: Cells were grown on fibronectin coated dishes. A fibronectin (Calbiochem) solution (0.1 mg/ml) (diluted in PBS) is used to coat the tissue culture dishes for 15 mins at 37 C.
The fully supportive media used to culture the stem cells was a 1:1 mixture of defined media (see below) and conditioned vitrohES. vitrohES media was conditioned for 24 hours on a layer of mitotically inactivated mouse embryonic fibroblasts plated at 4×10^5 cells/ml of conditioned media. Passaging was performed first by removing the media from the cells and washing with PBS. Trypsin (sourced from Invitrogen) was added to the cells and incubated for 1-2 mins at room temperature. Fresh media was added to neutralize the cells and then gently scraped off using a cell scraper and passaged 1 in 4 to fibronectin coated dishes.
After washing with PBS, cells were fixed in 4% paraformaldehyde (Sigma) for 10 mins at room temperature and washed again. Cells were then permeabilised in ethanol for 2 minutes. Blocking was performed in 10% Goat serum (sigma)/PBS (Invitrogen) for one hour at room temperature. The following primary antibodies (dilutions in brackets) were then incubated for 1 hour at room temperature diluted in blocking solution: mouse anti-POU5F1 (Santa cruz) (1:250), rabbit anti-PAX6 (Chemicon) (1:1000), mouse anti B-tubulin III (Sigma) (1:1000), mouse anti-Alpha-feta-protein (AFP) (Sigma) (1:400), mouse anti-muscle-specific actin (SMA) (Dako) (1:50), SSEA1 (Hybdridoma bank University of IOWA) (1:5), SSEA3 (Hybdridoma bank University of IOWA) (1:5), SSEA4 (Hybdridoma bank. University of IOWA) (1:5), Tra1-60 (Santa cruz) (1:200) and Tra1-80 (Santa Cruz) (1:200). […] All immunofluorescence was visualised and captures using Zeiss Axiovision image analysis system (http://www.ziess.com).
hESCs (SA121) were placed into standard feeder free conditions without exogenous FGF (including conditioned media made without addition of exogenous FGF) but supplemented with 10 μM EHNA. Cells were initially seeded from a trypsin passage of a standard, FGF containing, feeder free culture (passage 33 post feeder free; p100 total).
Controls were also set up without FGF or EHNA. Three lines were set up to grow independently for each condition and these were routinely passaged using trypsin as normal. Passaging was usually a 1 in 4 split approximately every 4 days.
A further culture of SA121 was transferred to standard feeder free conditions without exogenous FGF (including conditioned media made without addition of exogenous FGF) but supplemented with 10 μM EHNA. Cells were initially seeded from a trypsin passage of a standard, FGF containing, feeder free culture (passage 7 post feeder free; p 48 total).

The subject of the next data set is SA121 hESCs. The data set can be described thus: General (monolayer) differentiation on matrigel in defined media, qRT-PCR of stem cell and differentiation markers after 14 days. Set-up: key to Full EHNA effect: those which maintained at least 50% of the level of NANOG-expression in comparison to EHNA and those that inhibited the expression of PAX6 to 50% or less than the value untreated controls were considered to have an EHNA-like effect. The conditions noted are these: 14 days, qRT-PCR. The procedure:
In order to ascertain the efficacy of the compounds of the present invention, each compound was tested to determine whether it can maintain the stem cell marker NANOG and/or block the differentiation marker PAX6 in the face of differentiating conditions in a manner similar to EHNA. Cells enzymatically passaged onto matrigel-coated dishes and grown for 2 weeks in defined media with or without (control) compound addition were analysed by qRT-PCR to determine the level of NANOG and PAX6 expression.
For general differentiation experiments cells were passaged with trypsin onto matrigel coated twelve-well dishes in the fully supportive media (see above). The media was then changed to defined media 24 h later and any experimental component was first added at this point. The media and experimental supplement were changed daily.
Cells were routinely harvested for qRT-PCR analysis 14 days after the first addition of the experimental compound.
Total RNA was extracted using QIAGEN RNeasy kits (Qiagen Inc, Valencia, Calif., http://www.qiagen.com) and DNaseI treatment was performed using Turbo DNA-Free (Ambion). The absence of genomic DNA was confirmed by quantitative PCR (qPCR) (see below) using glyceraldehyde-3-phosphate dehydrogenase (GAPDH) Taqman primers and probe (MWG). cDNA was synthesized with 2 μg total RNA in 20 μl using Superscript II according to manufacturers' instructions ((Carlsbad, Calif., http://www.Invitrogen.com)). For qPCR, cDNAs were diluted 1 in 60 and 5 μl used per sample in a 15 μl total reaction volume. Platinum pPCR supermix UDG with Rox (Carlsbad, Calif., http://www.Invitrogen.com) was used according to the manufacturer's instructions using an Applied Biosystems 7300 real time PCR system (Applied Biosystems, Warrington, UK, http://europe.appliedbiosystems.com). Each reaction contained 0.6 μM of each primer and Taqman probe (MWG). Biological and technical replicates were each performed in triplicate for each sample, standardised to the GAPDH housekeeping gene and relative expression values were calculated using the 7300 system SDS software (Applied Biosystems, Warrington, UK, http://europe.appliedbiosystems.com).
Cells were enzymatically passaged onto matrigel-coated dishes and grown for 2 weeks in defined media. After 14 days, qRT-PCR was utilised to analyse the expression of a variety of markers of pluripotency and differentiation. In the graphs in FIG. 9 the value 1 was set to the expression level of the gene in undifferentiated SA121 hESCs.
Cells were enzymatically passaged onto matrigel-coated dishes and grown for 2 weeks in defined media (1× confluent T25 tissue culture flask was passaged to 2×12 well dishes) with or without (control) compound addition. All compounds were added at 10 uM and each was performed in triplicate. Media and compounds were changed every 48 hours. After 14 days RNA was isolated and qRT-PCR was utilised to analyse the expression of NANOG and PAX6. The results are illustrated in FIGS. 13 to 17.
In the graphs in FIGS. 13, 14 15, 16 and 17 the value 1 was set relative to the expression level of the gene in the control (no compound) samples. […] This experiment allowed the effect of the EHNA-related compounds to be measured directly in comparison to EHNA. […] Those which had on effect, to these levels, on either PAX6 or NANOG were considered to have a partial-EHNA effect.
For orientation: Quantitative PCR measures a nucleic acid by following its amplification.

Where [1] appears, read: 10 passages, immunofluorescence.

Turning to `CCCCCC[C@@H]([C@@H](C)O)n1cnc2c(N)ncnc21.Cl` [EHNA, erythro-9-(2-Hydroxy-3-nonyl)adenine, HCl], the “cells staining positive for POU5F1 versus untreated differentiation” value with hESCs (4 weeks (28 days) of neuronal differentiation) is reported as “At least 10 times”. The “PAX6 levels relative to the control differentiation” value with hESCs (4 weeks of differentiation (passage at 2 weeks)) is listed as over 50%. Further, the “levels of the stem cells markers NANOG and ZFP42” value in the data set with hESCs (4 weeks of differentiation, versus control) is on record as “considerably higher levels”. Moreover, in the data set with hESCs (early neuronal differentiation, qRT-PCR, HCl), the “effect on PAX6 / neuronal marker expression” value was “delays the onset and reduces the amount of neuronal marker expression; also recorded: delay or reduce the level of expression”. Besides, in the data set with hESCs (first 2 weeks of neuronal differentiation, qRT-PCR), the “expression levels of the stem cell genes POU5F1, NANOG and ZFP42” value was “maintained largely at undifferentiated levels”. Moreover, the “cells positive for POU5F1” value in the data set on hESC line SA461 is about 100%. Also, in the data set on hESCs (SA121) (10 μM EHNA, feeder free, no exogenous FGF), the “maintenance of hESCs in an undifferentiated state in the absence of FGF” value was “can be maintained in an undifferentiated state in the absence of FGF if EHNA is present”. In the data set on hESCs (SA121) (setting [1]), the “differentiation marker SSEA1” value was “negative”; the “stem-cell markers SSEA3, SSEA4, TRA-160, TRA-180 and OCT4” value is on record as “positive”. For the same molecule, the “expression of the stem cell markers NANOG and POU5F1 in the absence of FGF” value with hESCs (SA121) (FIG. 3) was “maintained”. For the same molecule, in the data set with hESCs (SA121) (after at least 22 passages without FGF with EHNA), the “ability to differentiate to all three germ layers” value is listed as “can differentiate to all three germ layers”. Also, the karyotype result in the data set with hESCs (SA121) (passage 21, at least one replicate line) is “karyotypically normal”. Further, the POU5F1 staining result in the data set on hESCs (SA121) (passage 21, immunofluorescence) was “all positive for POU5F1”. Moreover, the “hESC gene expression (TLDA)” value in the data set on hESCs (SA121) (passage 30, compared with hESCs grown with FGF without EHNA) is “appropriate hESC gene expression”. The “Full EHNA effect” value with SA121 hESCs (10 uM, NANOG at least 50% of EHNA level and PAX6 50% or less of untreated control) is reported as “X”. Further, in the data set with SA121 hESCs (FIG. 9a), the “SOX2 transcription in differentiating conditions” value is “maintained transcription at the same level as seen in undifferentiated hESCs and the untreated samples”; the “stem cell marker expression (NANOG, ZFP42, POU5F1) in differentiating conditions” value was “distinctly inhibited the down-regulation of the stem cell markers NANOG, ZFP42 and POU5F1”. In addition, the “induction of other differentiation markers (AFP, CD34, Brachyury, PECAM1, CDX2 and FOXA2)” value in the data set with SA121 hESCs (data not shown) is reported as “No induction of these markers”. Moreover, the “NANOG expression in differentiating conditions” value in the data set on SA121 hESCs (relative to untreated control) is recorded as “clearly maintains a higher level of NANOG than the untreated control”. In addition, the “PAX6 expression in differentiating conditions” value in the data set with SA121 hESCs (HCl) is reported as “inhibited the rise of PAX6 expression levels; also recorded: inhibits the onset of the differentiation marker PAX6”.
